“Also recorded” adds a separate entry of the source.
What was measured:
spontaneous tumors = test: Tumor response assessment (RECIST); assay type: in vivo, dogs
Description: Tumor assessments were completed prior to study entry, and days 8, 15, 22, and 29. For dogs that continued beyond the planned 4 doses of STA-1474, response assessments were performed every 3–6 weeks thereafter, or at the time of suspected tumor progression. Responses were assessed by the investigator according to pre-defined protocol criteria. The response in dogs with assessable disease was performed by clinical examination, radiography, ultrasonography, or CT scans. Many lesions were not amenable for quantitative radiographic imaging, but were followed either by serial clinical examination (superficial lesions; palpable lymph nodes) or by ultrasonography (abdominal lymph nodes). Thoracic lesions were assessed by thoracic radiography and nasal lesions by CT scan.
The response in dogs with measurable disease was judged by the investigator on the basis of RECIST criteria. A complete response (CR) was defined as disappearance of all disease on two measurements separated by a minimum period of 3 weeks. A partial response (PR) was defined as greater than 30% reduction in the sum of the longest diameter of the target lesions documented by two assessments separated by at least 3 weeks. An increase of >20% in the size of all measurable tumor areas as measured by the sum of longest diameters of the target lesions taken as reference the smallest sum since initiation of therapy, or the appearance of any new lesion(s) would qualify as progressive disease (PD). A mixed response (MR) was defined as PR in some target lesions with PD in other target lesions. Stable disease (SD) was defined by the absence of criteria for either a response or progression. Dogs who had no evidence of tumor progression and who had not experienced any unacceptable toxicity were eligible for extended treatment cycles. Dose escalation in an individual dog was permitted if the dog was tolerating therapy.

[1] = tested on: canine MCT and OSA cell lines; conditions: cited from earlier work; for activity compared with 17-AAG: OSA and MCT cell lines
OSA xenografts = conditions: cited from earlier work
[2] = Toxicity assessment (VCOG-CTCAE grades) in Phase I trial; assay type: in vivo, dogs
Description: This study was a Phase I dose escalating, open label assessment of the safety and pharmacokinetics of STA-1474 in client owned dogs with spontaneous malignancies. Dogs were administered STA-1474 on one of three dosing regimens and were evaluated weekly or twice per week dependent on the regimen used. Assessment of clinical toxicities and tumor response was performed at each visit. Dogs were evaluated for hematologic and biochemical toxicities every 7 days with routine bloodwork. The initial dose of STA-1474 was set at 7 mg/kg based on previous data from normal laboratory dogs (data not shown) and dose escalation was set at 2.5 mg/kg increments in cohorts of 3 until dose limiting toxicity (DLT) was identified. The DLT was considered to be any grade 3 or 4 hematologic or non-hematologic toxicity based on the established VCOG-CTAE criteria. […] Disease progression or signs and symptoms definitely related to disease were not considered adverse events (AEs).
Each patient underwent a baseline complete history, physical examination, and predose laboratory assessment that included a complete blood count (CBC), serum biochemistry profile, and urinalysis. Patients were assessed for adverse events on days 8, 15, 22, and 29, at which time a complete blood count with differential and clinical chemistry were performed. Urinalysis was performed at baseline and repeated only if indicated. Stipulations regarding minimal hematological requirements to continue dosing were included in the protocol: hematocrit >25%, neutrophils >[…], platelets >[…]. In addition, liver transaminases were required to be <4X upper limit of normal with a normal total bilirubin and serum creatinine to continue STA-1474 therapy.

HSP90 = test: Evaluation of tumor biopsies for HSP90 expression (Western blot); assay type: in vivo, dogs; conditions: tumor samples, 24 hrs following treatment, 5 mg/kg over 1 hour
Description: Frozen tumor samples were processed as described above, then resuspended in 100–150 uL of lysis buffer consisting of 20 mM Tris-HCl pH 8.0, 137 mM NaCl, 10% glycerol, 1% IGEPAL CA-630, 10 mM ethylenediaminetetraacetic acid (EDTA), 1 mg/mL aprotinin, 1 mg/mL leupeptin, 1 mg/mL pepstatin A, 1 mM phenylmethysulphonyl fluoride, 1 mM sodium orthovanadate, 10 mM sodium fluoride (all from Sigma, St. Louis, MO). Sample were rocked at 4°C for 1 hour, and then centrifuged for 15 minutes at 13,000 RCF. A Bradford protein assay was performed on the lysates using BioRad Reagent (Hercules, CA). 60–100 µg of protein were separated by SDS-page, and transferred to PVDF membranes. The membranes were incubated overnight with anti-HSP90 antibodies (Cell Signaling Technology, Danvers, MA), washed, then incubated with horseradish peroxidase linked secondary antibody. Membranes were washed again, then exposed to Super Signal West Dura Extended Duration Substrate (Pierce, Rockford, IL) Membranes were stripped, washed, and reprobed for β-Actin (Santa Cruz Biotechnology, Santa Cruz, CA) using the SNAP i.d. apparatus (Millipore, Billerica, MA) according to manufacture's instructions.

HSP70 = test: Evaluation of HSP70 expression in tumor biopsies and PBMCs (ELISA, Western blot); assay type: in vivo, dogs
human cancer cell lines = tested on: human cancer cell lines; parameters: method as in earlier work; conditions: in vitro; 15 and unpublished data, Synta Pharmaceuticals Corp.; cited from earlier work
[3] = Ganetespib pharmacokinetics in plasma after STA-1474 infusion (LC-MS/MS); assay type: in vivo, dogs; conditions: for half-life / AUC(0-t) / Cmax / Tmax: iv, STA-9090 in plasma, mean, day 1
Description: Plasma samples were collected on day 1 and day 22 of therapy at the specified intervals: before and after dosing at 30, 60, 90, 120, 180, 300 (5 hr), 540 (9 hr), and 1440 (24 hr) minutes relative to the start of dosing. On day 8, day 15, and day 29, plasma was collected before dosing only. Approximately 1 ml of blood was drawn from an indwelling catheter, placed in a sodium heparin vacuum glass tube, and placed on ice until centrifugation. Blood samples were centrifuged at 3300 rpm for 10 minutes, within 30 minutes of collection. Plasma was transferred by pipette into two cryovials and stored at −80°C until analysis.
Plasma concentrations of ganetespib were determined using a qualified liquid chromatography tandem mass spectrometry (LC-MS/MS) method. Samples were analyzed on an HPLC system consisting of an Agilent HP1100 separation module (Santa Clara, CA) coupled to an AB SCIEX API400 MS/MS detector (Foster City, CA). Stable isotope-labeled ganetespib was used as an internal standard. Sample extraction was performed by a liquid-liquid extraction method with 25 µL plasma samples and 800 µL methyl tertiary butyl ether. The organic phase of samples was evaporated to dryness under nitrogen and reconstituted with water/acetonitrile solution for injection. Chromatographic separation was achieved on a reverse-phase analytical column (4 µm particle, 50×2.0 mm i.d.) with gradient elution of water/0.1% formic acid and acetonitrile/0.1% formic acid at a flow rate of 500 µL/min. The total run time was 4 min. Quantitation was achieved by MS/MS detection in positive ion mode by multiple reaction monitoring. The lower limit of quantitation (LLOQ) was 1.00 ng/mL, with a concentration range from 1.00 to 1000 ng/mL.
The pharmacokinetic parameters for ganetespib were determined from the plasma concentration data using the Noncompartmental Analysis module in WinNonlin, version 5.2 (Pharsight Corporation, St.Louis, MO). The predose samples that measured below the LLOQ (BQL) were treated as zero for the calculations. Maximum concentration (Cmax) and time of maximum concentration (Tmax) were directly determined from the observed concentration-time profiles. The area under the plasma concentration-time curve (AUC) was estimated by the linear trapezoidal rule. The apparent half-life (t1/2) was calculated as t1/2 = 0.693/λ where λ was the elimination rate constant estimated from the regression of the terminal slope of the concentration versus time curve.

MCT xenograft = conditions: murine MCT xenograft model; cited from earlier work
[4] = 1 hr/2x week, 5.0 mg/kg, 7 dogs
[5] = dog, plasma, 5 mg/kg, STA-1474 5 mg/kg, 1 h infusion, twice weekly
[6] = dog, plasma, 9.5 mg/kg, STA-1474 9.5 mg/kg, 1 h infusion, once weekly
[7] = dog, plasma, 9.5 mg/kg, STA-1474 9.5 mg/kg, 8 h infusion, once weekly

## CC(C)c1cc(-c2nnc(O)n2-c2ccc3c(ccn3C)c2)c(O)cc1OP(=O)(O)O [STA-1474]
Spontaneous tumors; 5 mg/kg over one hour twice per week, 7 dogs, both MCTs
  dogs with partial responses: 2
Spontaneous tumors; 1 hr once per week dosing regimen, n = 12, exception one dog with oral malignant melanoma after extravasation
  objective responses: no objective responses
Spontaneous tumors; 8 hour infusion group, 9.5 mg/kg once weekly, 2PR, 1 MR, 2 SD of 6
  biologic activity rate: 83%
Spontaneous tumors; all dogs, 6/25
  response rate (measurable objective responses): 24%
Spontaneous tumors; all dogs, 9/25
  overall biological activity (objective responses plus stable disease >10 weeks): 36%
Spontaneous tumors; metastatic MCT, 8 hour infusion 9.5 mg/kg
  duration of mixed response: 16 weeks
Spontaneous tumors; metastatic OSA, 8 hour infusion 9.5 mg/kg
  duration of partial response: 20 weeks
Spontaneous tumors; metastatic thyroid carcinoma, 8 hour infusion 9.5 mg/kg
  duration of partial response: 36 weeks
Spontaneous tumors; metastatic thyroid carcinoma, switched from 1 hr to 8 hr infusion
  duration of stable disease: 40 weeks
Spontaneous tumors; oral malignant melanoma with extravasation event, on 8 hour infusion protocol
  duration of continued partial response: 12 weeks
Spontaneous tumors; two dogs, both metastatic OSA, 8 hour infusion 9.5 mg/kg
  duration of stable disease: 12 weeks
[1]
  activity compared with 17-AAG: superior activity
OSA xenografts
  tumor effect: induced tumor regression
[2]; [4]
  Anorexia grade 1 (count): 3
  Anorexia grade 2 (count): 5
  Diarrhea grade 1 (count): 5
  Diarrhea grade 2 (count): 1
  Diarrhea grade 3 (count): 1
  Lethargy grade 1 (count): 4
  Lethargy grade 2 (count): 2
[2]; 1 hr/week, 7.0 mg/kg, 4 dogs
  Anorexia grade 2 (count): 2
  Diarrhea grade 1 (count): 2
  Diarrhea grade 2 (count): 3
  Lethargy grade 1 (count): 2
  Vomiting grade 1 (count): 3
[2]; 1 hr/week, 9.5 mg/kg, 5 dogs
  Diarrhea grade 1 (count): 1
  Diarrhea grade 3 (count): 1
  Lethargy grade 2 (count): 1
  Lethargy grade 3 (count): 1
  Vomiting grade 2 (count): 2
[2]; 1 hr/week, 10.25 mg/kg, 3 dogs
  Anorexia grade 2 (count): 3
  Diarrhea grade 2 (count): 3
  Lethargy grade 2 (count): 3
  Vomiting grade 2 (count): 1
[2]; 8 hr/week, 9.5 mg/kg, 6 dogs
  Anorexia grade 1 (count): 5
  Anorexia grade 2 (count): 4
  Diarrhea grade 1 (count): 4
  Diarrhea grade 2 (count): 4
  Lethargy grade 1 (count): 2
  Vomiting grade 2 (count): 3
[2]; administered weekly over 1 or 8 hours, intravenous
  maximum tolerated weekly dose: 9.5 mg/kg
[2]; any doses or regimens
  hematologic or biochemical toxicities: No drug-related hematologic or biochemical toxicities; also recorded: no evidence of hematologic toxicity
HSP90
  HSP90 expression levels (Western blot): did not appear to change substantially
HSP70; PBMCs, 24 hours after 9.5 mg/kg over 8 hours
  HSP70 expression (Western blot): small increases in HSP70 expression
HSP70; tumor specimens and PBMCs, following drug administration
  time to upregulation of HSP70 protein expression: ≤ 7 h

## CC(C)c1cc(-c2n[nH]c(=O)n2-c2ccc3c(ccn3C)c2)c(O)cc1O [ganetespib]
Human cancer cell lines
  concentrations killing cancer cell lines: low nanomolar concentrations
[1]
  activity compared with 17-AAG: superior activity
[1]; canine MCT and OSA cell lines
  concentrations for biologic effects, lower than those for 17-AAG: at least 1 log
[3]; dog with oral melanoma, extravasation (mostly subcutaneous) of STA-1474, first dosing cohort
  sustained blood levels: 200 to 600 ng/mL
[3]; dog with oral melanoma, extravasation of STA-1474, levels between 200–600 ng/ml
  duration of sustained blood levels: 8 to 10 h
[3]; dog, STA-1474 5 mg/kg, 1 h infusion, twice weekly
  half-life: 6.1 h
[3]; dog, STA-1474 9.5 mg/kg, 1 h infusion, once weekly
  half-life: 5.6 h
[3]; dog, plasma, intravenous, range over the three dosing regimens of STA-1474
  AUC: 5010 to 5700 ng·h/mL
[3]; [5]
  AUC(0-t): 5010 ng·h/mL
  Cmax: 3420 ng/mL
  Tmax: 1.1 h
[3]; [6]
  AUC(0-t): 5700 ng·h/mL
  Cmax: 3980 ng/mL
  Tmax: 0.7 h
[3]; [7]
  AUC(0-t): 5600 ng·h/mL
  Cmax: 802 ng/mL
  Tmax: 5.7 h
MCT xenograft
  tumor growth: inhibited tumor growth

— paper PMC3207826, “Phase I Evaluation of STA-1474, a Prodrug of the Novel HSP90 Inhibitor Ganetespib, in Dogs with Spontaneous Cancer” (PLoS ONE, 2011)
